Test results taken from patent publication US6787572B2, “Use of ubiquinone Q10 for the local treatment and prevention of post-surgical ophthalmologic pathologies” (priority 1999, dated 2004).

Key:
[1] = system: RCE cells (Rabbit Corneal Epithelial Cells); assay: Malondialdehyde assay (lipid peroxidation / free radical production) after radiation; format: cell-based; settings: 2 h preincubation
From the text: The malondialdehyde is a product of the lipid peroxidation which occurs following exposure to free radicals of polyinsaturated fat acids. The malondialdehyde production is then routinely interpreted as a production index of the radicals themselves by means of treatment with electromagnetic radiations or oxidant substances. The Q10, as antioxidant, decreases the malondialdehyde production by indicating an action thereof which inhibits the free radicals' formation. To perform the malondialdehyde assay, RCE cells (Rabbit Corneal Epithelial Cells which are rabbit corneal keratocytes immortalized with SV40) have been plated at the density of 5×10^5 cell/plate in 10 plates of Petri with 10-cm diameter and incubated overnight in 5% CO2 atmosphere, 37° C. Then, the plates have been preincubated for 2 hours with Q10 10 μM, Vit.E, Vit. […] At the moment of the test the cells have been detached with trypsin according to standard procedures and counted by means of cell-counting chamber. […]
At 300 μl of buffy coat of each sample, 300 μl of thiobarbituric acid (TBA) by 1% have been added. The mixtures have been incubated at 95° C. for 30 minutes, centrifugated for 20 minutes at 12,000 RPM and the optic absorption of the buffy coat resulting by spettrophotometric analysis at λ=532 nm has been assessed. […]

[2] = system: RCE cells; assay: ATP levels after excimer laser or 254 nm radiation (firefly luciferase kit); format: cell-based, rabbit; settings: Q10 10 μM in Lutrol F127; 2 h preincubation; 193 nm excimer laser (FIG. 2a) or 254 nm UV (FIG. 2b)
Procedure: In order to perform the ATP test, RCE cells have been placed at the density of 5×10^5 cells/plate in 10 plates of Petri with 10-cm diameter and incubated overnight in 5% CO2 atmosphere, 37° C. Subsequently the plates have been preincubated for 2 hours with Q10 at 10 μM dissolved in the Lutrol F127™ solution or with Lutrol F127™ only. The culture medium has been then replaced by 8 ml of sterile PBS, additioned with Ca^++ and Mg^++ to avoid the detach of the cells from the support and the plates have been submitted to treatment with excimer laser (λ=193 nm) as shown by FIG. 2a or with 254 nm ultraviolet laser, as shown in FIG. 2b. Subsequently the PBS has been replaced by fresh culture medium additioned with the above reagents and the plates have been incubated for further 2 hours. At the moment of the assay the cells have been detached with trypsin according to standard procedures and counted by means of cell-counting chamber. […] The ATP quantification in the extracts has been performed by the “ATP Determination Kit” (Molecular Probes, USA) kit, based upon the firefly lucipherase according to the supplier instructions. To detect fluorescence, an analyzer for liquid scintillation (Camberra Packard, USA) preset for the bioluminescence analysis has been utilized.

[3] = system: RCE cells; assay: Counting of vital cells by trypan blue exclusion test after radiation; format: cell-based, rabbit; settings: Q10 10 μM in Lutrol F127; excimer laser and 254 nm UV (15,000 μJ/cm^2); FIGS. 5a, 5b
Procedure: However, the fact that the Q10 has a general protection effect against death by radiation is an important data in preventing […] collateral effects. In order to perform the trypan blue test, RCE cells have been plated at a density of 5×10^5 cells/plates with 10-cm diameter incubated overnight at 37° C., […]. Subsequently, the plates have been preincubated for 2 hours with Q10 10 μM dissolved in the Lutrol F127^MT solution or with Lutrol F127™ only. The culture medium has been then replaced by 8 ml of sterile PBS, additioned with Ca^++ and Mg^++ to avoid the cell detachment from the support, and the plates have undergone treatment with excimer laser and λ=254 UV radiation in a Stratalinker apparatus, model 1800 (Stratagene). Subsequently the PBS has been replaced by fresh culture medium additioned with the above reagents. The plates have been incubated for the time shown in FIG. 6a and in FIG. 6b and subsequently detached by trypsin according to standard procedures and resuspended in PBS. To the cell suspension a trypan blue solution in PBS by 1% concentration has been added immediately before the counting performed by means of cell-counting chamber. The number of live cells is shown in the FIGS. 4, 5a and 5b in the non-treated sample percentage.

[4] = system: RCE cells; assay: Counting of cumulative apoptotic deaths by videomicroscopy at time intervals; format: cell-based, rabbit; settings: Q10 10 μM in Lutrol F127; 193 nm excimer laser and 254 nm UV; 24-72 hours after radiation; FIG. 6
From the text: The videomicroscopy at time intervals is up to now one of the few techniques, if not the only one, enabling to have, apart from the cell death-type characterization, the exact quantification thereof too. In fact by continuously considering the cell population it is possible to calculate the number of cumulative deaths without losing any death event due to the disintegration of the cell body which typically occurs during apoptosis.
To perform the experiment RCE cells have been plated at the density of 5×10^5 cells/plate with 10-cm diameter and incubated overnight at 37° C., CO2 10%. Subsequently, the plates have been preincubated for 2 hours with Q10 10 μM dissolved in the Lutrol F127^MT solution or with Lutrol F127™ only. The culture medium has been then replaced by 8 ml of sterile PBS, additioned with Ca^++ and Mg^++ to avoid the cell detachment from the support, and the plates have undergone treatment with excimer laser and λ=254 UV radiation in a Stratalinker apparatus, model 1800 (Stratagene) with various doses. Subsequently the PBS has been replaced by fresh culture medium additioned with the above reagents. […]

[5] = cited from earlier work

COC1=C(OC)C(=O)C(C/C=C(\C)CC/C=C(\C)CC/C=C(\C)CC/C=C(\C)CC/C=C(\C)CC/C=C(\C)CC/C=C(\C)CC/C=C(\C)CC/C=C(\C)CCC=C(C)C)=C(C)C1=O [Q10, ubiquinone Q10]
malondialdehyde levels following treatment with UV at 254 nm ([1]; Q10 10 μM in Lutrol F127, alone or in combination with Vit.E, Vit.C, 254 nm UV 15,000 μJ/cm^2, FIG. 1a): protective effect | malondialdehyde production following treatment with 193 nm excimer laser ([1]; Q10 10 μM in Lutrol F127, various doses of 193 nm excimer laser, FIG. 1b): reductive effect against the malondialdehyde production | ATP level following radiation [2]: protective effect opposing the decrease in the ATP level | vitality of cells (number of live cells, trypan blue) [3]: protective effect on the vitality of cells | cumulative apoptotic deaths [4]: protective effect on cells treated with 193 nm excimer laser and 254 nm UV radiation | solubility in water [5]: non-hydrosoluble substance
